# Experimental data reported in PubChem BioAssay AID2060512 (Molecular Pharmacology Branch, DTP, NCI, 2025).
# Tested on: 186277-243-T-J2-PDC complex spheroid viability
# Experiment: Anticancer human tumor 186277-243-T-J2-PDC patient-derived colon adenocarcinoma cell line growth inhibition [GQUAD]
# Conditions: for IC50: curve of first compound; for viability, T/C: stronger effect = lower value
# Description: DNA G-quadruplex Stabilizer Agents in Combinations in Complex Spheroids
# A high-throughput screen of multi-cell type tumor spheroids was designed to identify active combinations of DNA G-quadruplex stabilizer agents and targeted small molecules. Complex spheroids include a stromal component modeled by human endothelial cells (HUVEC) and fibroblasts modeled by human mesenchymal stem cells (MSCs). The concentration ranges selected for each drug and investigational agent were based upon clinically achievable concentrations if the clinical Cmax of the agent was known.
# Compounds. The drugs and investigational agents: pidnarulex (CX-5461; NSC782164), APTO-253 (NSC789042), BRACO-19 (NSC847499), peposertib (NSC802822), ceralasertib (NSC780249), elimusertib (NSC800525), camonsertib (NSC841442), AZD-1390 (NSC803789), olaparib (NSC753686), talazoparib (NSC767125), ART-558 (NSC835418), sotorasib (NSC818433), MRTX-1133 (NSC836407), SN-38 (NSC673596), topotecan (NSC609699), etoposide (NSC141540), doxorubicin (NSC123127), gemcitabine (NSC613327), 5-fluorouracil (NSC19893), paclitaxel (NSC125973), vemurafenib (NSC761431), panobinostat (NSC761190), R-306465 (JNJ-16241199; NSC773264), adavosertib (NSC754352), TP-3654 (NSC805149), carboplatin (NSC241240), KSQ-4279 (NSC840948), and staurosporine (NSC755774) were obtained from the National Cancer Institute (NCI) Developmental Therapeutics Program Chemical Repository (34). The FDA-approved anticancer drug set is available from the NCI Developmental Therapeutics Program. […] The stock solutions were prepared in dimethyl sulfoxide (DMSO, Sigma-Aldrich, St. Louis, MO, cat. D2650) at 800-fold the tested concentration and stored at -70 degrees C prior to their use. All drugs and investigational agents were tested over a range starting from a high concentration at or near the clinical Cmax and decreasing in half-log increments. If the clinical Cmax for an agent had not been determined, the highest concentration tested was 10 microM.
# 2.3 Cell Culture. All cells were maintained in an incubator at 37 degrees C and 5% CO2 with 95% humidity. The PDC lines were cultured according to standard operating procedures established by the NCI PDMR. All PDCs were thawed and cultured in Matrigel-coated flasks prepared with a working solution of 1X Ham's F-12 nutrient mix, without supplementation (Invitrogen, cat. 11765054), 100 U/mL penicillin-streptomycin (Invitrogen, cat. 15140122), and 2.5% Matrigel (Corning Inc., cat. 354248) for the first three passages. The 857933-349-R-J2-PDC line was cultured in 6C/Colon 1B media, which includes advanced DMEM/F-12 (Thermo Fisher Scientific, cat. 12634028), 10 mM HEPES (Thermo Fisher Scientific, cat. 15630080), 1X GlutaMAX supplement (Thermo Fisher Scientific, cat. 35050061), 0.1 mg/mL primocin (InvivoGen, cat. ant-pm-2), 10% defined fetal bovine serum, heat inactivated (HyClone Laboratories Inc., cat. SH30070.03HI), 50% L-WRN conditioned media (ATCC, cat. CRL-3276), 1.25 mM N-Acetyl-L-cysteine (Sigma-Aldrich, cat. A9165), 10 mM nicotinamide (Sigma-Aldrich, cat. N0636), 1X B-27 supplement (Thermo Fisher Scientific, cat. 17504044), 1X N-2 supplement (Thermo Fisher Scientific, cat. 17502048), 10 microM Y-27632 dihydrochloride (Tocris Bioscience, cat. 1254), and 50 ng/mL human EGF recombinant protein (Thermo Fisher Scientific, cat. PHG0311). The 485176-168-R4-J1-PDC line was cultured in Panc media, which includes all 6C/Colon 1B media components plus 100 ng/mL human FGF-10 (Thermo Fisher Scientific, cat. 100-26), 500 nM SB-431542 (Selleckchem, cat. S1067), and gastrin (Tocris, cat. 3006).
# […]
# [1] = second compound 0.0316 µM, first compound 0.0316 µM
# [2] = second compound 0.0316 µM, first compound 0.316 µM
# [3] = second compound 0.1 µM, first compound 0.0316 µM
# [4] = second compound 0.1 µM, first compound 0.316 µM
# [5] = second compound 0.316 µM, first compound 0.0316 µM
# [6] = second compound 0.316 µM, first compound 0.316 µM
# [7] = second compound 1 µM, first compound 0.0316 µM
# [8] = second compound 1 µM, first compound 0.316 µM
# [9] = second compound 3.16 µM, first compound 0.0316 µM
# [10] = second compound 3.16 µM, first compound 0.316 µM
# [11] = second compound 10 µM, first compound 0.0316 µM
# [12] = second compound 10 µM, first compound 0.316 µM
# 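Further: spheroids exposed to drugs for 7 days.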
# 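Wherever viability, T/C is given: 100% = DMSO vehicle control viability.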
smiles,measurement,setting,value
C=CC(=O)N1CCN(c2nc(=O)n(-c3c(C)ccnc3C(C)C)c3nc(-c4c(O)cccc4F)c(F)cc23)C(C)C1 (centres undefined) + CN(C)c1ccc(Nc2c3ccc(NC(=O)CCN4CCCC4)cc3nc3cc(NC(=O)CCN4CCCC4)ccc23)cc1,IC50,second compound 0.0316 µM,> 10000 nM
same,IC50,second compound 0.1 µM,> 10000 nM
same,IC50,second compound 0.316 µM,> 10000 nM
same,IC50,second compound 1 µM,> 10000 nM
same,IC50,second compound 3.16 µM,> 10000 nM
same,IC50,second compound 10 µM,> 10000 nM
same,"viability, T/C",[1],105%
same,"viability, T/C","second compound 0.0316 µM, first compound 0.1 µM",85.5%
same,"viability, T/C",[2],90.1%
same,"viability, T/C","second compound 0.0316 µM, first compound 1 µM",81.7%
same,"viability, T/C","second compound 0.0316 µM, first compound 3.16 µM",104%
same,"viability, T/C","second compound 0.0316 µM, first compound 10 µM",96.6%
same,"viability, T/C",[3],111%
same,"viability, T/C","second compound 0.1 µM, first compound 0.1 µM",96.1%
same,"viability, T/C",[4],101%
same,"viability, T/C","second compound 0.1 µM, first compound 1 µM",71.9%
same,"viability, T/C","second compound 0.1 µM, first compound 3.16 µM",111%
same,"viability, T/C","second compound 0.1 µM, first compound 10 µM",88.3%
same,"viability, T/C",[5],104%
same,"viability, T/C","second compound 0.316 µM, first compound 0.1 µM",94.6%
same,"viability, T/C",[6],87.3%
same,"viability, T/C","second compound 0.316 µM, first compound 1 µM",90.5%
same,"viability, T/C","second compound 0.316 µM, first compound 3.16 µM",92.6%
same,"viability, T/C","second compound 0.316 µM, first compound 10 µM",95.2%
same,"viability, T/C",[7],93.9%
same,"viability, T/C","second compound 1 µM, first compound 0.1 µM",89.8%
same,"viability, T/C",[8],88.4%
same,"viability, T/C","second compound 1 µM, first compound 1 µM",101%
same,"viability, T/C","second compound 1 µM, first compound 3.16 µM",105%
same,"viability, T/C","second compound 1 µM, first compound 10 µM",97.3%
same,"viability, T/C",[9],95.3%
same,"viability, T/C","second compound 3.16 µM, first compound 0.1 µM",87.2%
same,"viability, T/C",[10],97.6%
same,"viability, T/C","second compound 3.16 µM, first compound 1 µM",89.8%
same,"viability, T/C","second compound 3.16 µM, first compound 3.16 µM",101%
same,"viability, T/C","second compound 3.16 µM, first compound 10 µM",95.3%
same,"viability, T/C",[11],91.7%
same,"viability, T/C","second compound 10 µM, first compound 0.1 µM",80.2%
same,"viability, T/C",[12],98.4%
same,"viability, T/C","second compound 10 µM, first compound 1 µM",96%
same,"viability, T/C","second compound 10 µM, first compound 3.16 µM",111%
same,"viability, T/C","second compound 10 µM, first compound 10 µM",88.1%
CC[C@@]1(O)C(=O)OCc2c1cc1n(c2=O)Cc2cc3c(CN(C)C)c(O)ccc3nc2-1 + CN(C)c1ccc(Nc2c3ccc(NC(=O)CCN4CCCC4)cc3nc3cc(NC(=O)CCN4CCCC4)ccc23)cc1,IC50,second compound 0.0316 µM,> 316 nM
same,IC50,second compound 0.1 µM,153 nM
same,IC50,second compound 0.316 µM,178 nM
same,IC50,second compound 1 µM,206 nM
same,IC50,second compound 3.16 µM,209 nM
same,IC50,second compound 10 µM,252 nM
same,"viability, T/C","second compound 0.0316 µM, first compound 0.000999 µM",91.1%
same,"viability, T/C","second compound 0.0316 µM, first compound 0.00316 µM",115%
same,"viability, T/C","second compound 0.0316 µM, first compound 0.00999 µM",99.2%
same,"viability, T/C",[1],88.3%
same,"viability, T/C","second compound 0.0316 µM, first compound 0.0999 µM",54.4%
same,"viability, T/C",[2],50.1%
same,"viability, T/C","second compound 0.1 µM, first compound 0.000999 µM",91.5%
same,"viability, T/C","second compound 0.1 µM, first compound 0.00316 µM",104%
same,"viability, T/C","second compound 0.1 µM, first compound 0.00999 µM",92.5%
same,"viability, T/C",[3],70.9%
same,"viability, T/C","second compound 0.1 µM, first compound 0.0999 µM",61.1%
same,"viability, T/C",[4],36.9%
same,"viability, T/C","second compound 0.316 µM, first compound 0.000999 µM",93.9%
same,"viability, T/C","second compound 0.316 µM, first compound 0.00316 µM",102%
same,"viability, T/C","second compound 0.316 µM, first compound 0.00999 µM",95.6%
same,"viability, T/C",[5],81.4%
same,"viability, T/C","second compound 0.316 µM, first compound 0.0999 µM",59.4%
same,"viability, T/C",[6],41.2%
same,"viability, T/C","second compound 1 µM, first compound 0.000999 µM",86.5%
same,"viability, T/C","second compound 1 µM, first compound 0.00316 µM",81.7%
same,"viability, T/C","second compound 1 µM, first compound 0.00999 µM",87.1%
same,"viability, T/C",[7],72%
same,"viability, T/C","second compound 1 µM, first compound 0.0999 µM",65.6%
same,"viability, T/C",[8],41.2%
same,"viability, T/C","second compound 3.16 µM, first compound 0.000999 µM",96.8%
same,"viability, T/C","second compound 3.16 µM, first compound 0.00316 µM",99.5%
same,"viability, T/C","second compound 3.16 µM, first compound 0.00999 µM",105%
same,"viability, T/C",[9],74.4%
same,"viability, T/C","second compound 3.16 µM, first compound 0.0999 µM",65.2%
same,"viability, T/C",[10],42.5%
same,"viability, T/C","second compound 10 µM, first compound 0.000999 µM",93.8%
same,"viability, T/C","second compound 10 µM, first compound 0.00316 µM",85.7%
same,"viability, T/C","second compound 10 µM, first compound 0.00999 µM",98%
same,"viability, T/C",[11],85.1%
same,"viability, T/C","second compound 10 µM, first compound 0.0999 µM",58.3%
same,"viability, T/C",[12],47.9%
